Here are results for 2 compounds from US20250176542A1, “Antibacterial Composition” (LG Chem, Ltd., priority 2022, published 2025).

The test system of series [1] is E. coli bacteria. Put plainly: Bacterial proliferation inhibition rate measurement (Method 1). The format is cell-based. Conditions: 0.04 g in 20 mL nutrient broth inoculated with 3,000±300 CFU/mL, 37° C., 24 hours, absorbance at 600 nm. How it is done: After 0.04 g of the antibacterial composition is added to 20 mL of a nutrient broth culture solution inoculated with 3,000±300CFU/mL of bacterial strain, from the culture solution of an experimental group in which the resulting mixture is incubated at 37° C. in a shaking incubator for 24 hours, the absorbance at a wavelength of 600 nm is measured using a UV/Vis spectrophotometer, • the antibacterial composition is not added to 20 mL of a nutrient broth culture solution inoculated with 3,000±300CFU/mL of bacterial strain, from the culture solution of a control in which the nutrient broth culture solution is incubated at 37° C. for 24 hours, the absorbance at a wavelength of 600 nm is measured using a UV/Vis spectrophotometer, and • from the absorbance of the experimental group and the absorbance of the control group, the bacterial proliferation inhibition rate (%) of the test bacteria is calculated using the following Equation 1.
In the present experiment, the bacterial proliferation inhibition rate was measured according to the following Method 1. In this case, E. coli bacteria were used.

A short description of series [2]: Primary thermal decomposition measurement (thermogravimetric analyzer). The series is classed as physicochemical. Conditions: N2 atmospheric environment, extrapolated onset of first mass reduction section. The source says:
The primary thermal decomposition temperature may be defined as an extrapolated intersection point between a starting mass reference line and the tangent line of the maximum slope point in the first mass reduction section of a mass loss curve measured by a thermogravimetric analyzer in an N2 atmospheric environment.
A thermogravimetric analyzer (TGA2 manufactured by Mettler Toledo) was used in order to perform an experiment on the primary thermal decomposition temperature of the antibacterial compositions of Examples 1 to 13 and Comparative Example 1.
In the present experiment, the primary thermal decomposition temperature may be defined as an extrapolated intersection point between a starting mass reference line and the tangent line of the maximum slope point in the first mass reduction section of a mass loss curve measured by a thermogravimetric analyzer in an N2 atmospheric environment. In the present disclosure, it was determined that when the primary thermal decomposition temperature of the antibacterial composition has a value higher than the primary thermal decomposition temperature of the material before anion substitution, the heat resistance has increased.

Take `C=Cc1ccc(C[N+](C)(C)CCCCCCCCCCCC)cc1.[Cl-]` [Comparative Example 1]: the “Bacterial proliferation inhibition rate” value in series [1] was determined as 96.3%.
`C=Cc1ccc(C[N+](C)(C)CCCCCCCCCCCC)cc1.O=S(=O)([O-])C(F)(F)F` [Example 1]: the “Primary thermal decomposition temperature” value in series [2] is 369 °C.
